Reference: PubChem BioAssay AID264 (DTP/NCI, 2004)
Inconclusive results are not listed.

System: nude mice, LX-1 lung xenograft intrarenal, tumor weight T/C
Test: NCI In Vivo Anticancer Drug Screen. Data for tumor model Human Lung LX-1 Xenograft (intrarenal inoculation) in NU/NU Swiss (nude) mice
Settings: endpoint: mean tumor weight change, schedule: Q04DX003 (sc), higher = larger tumour
Procedure, shortened: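 Compound-treated mice carrying transplanted tumors were compared with vehicle-treated controls. Tumor size was the measured end point, and the value is the treated-group measurement divided by the control-group measurement (T/C).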

`C=C(C)[C@]12CC(C)C34OC(/C=C\C=C\CCCCCCCCC)(O[C@@H]1[C@@H]3[C@@H]1O[C@]1(CO)[C@@H](O)[C@]1(O)C(=O)C(C)=C[C@@H]41)O2` (some centres not stated) was tested, and the T/C (dose: 3.0 mg/kg/injection, vehicle: distilled water + alcohol) was 84 % of control, the T/C (dose: 6.0 mg/kg/injection, vehicle: distilled water + alcohol) was 77 % of control and the T/C (dose: 12.0 mg/kg/injection, vehicle: distilled water + alcohol) was 81 % of control.

With `c1cc(-c2cc3ccc(C4=NCCN4)cc3[nH]2)ccc1C1=NCCN1` the T/C (dose: 25.0 mg/kg/injection, vehicle: saline) was 68 % of control, the T/C (dose: 50.0 mg/kg/injection, vehicle: saline) was 67 % of control and the T/C (dose: 100.0 mg/kg/injection, vehicle: saline) was 73 % of control.

In the case of `O=P(O)(NCCCl)NCCCl`, the T/C (dose: 150.0 mg/kg/injection, vehicle: saline) is reported as 33 % of control.

In the case of `CC(C)(C)c1ccc(CN2CCN(C(c3ccccc3)c3ccc(Cl)cc3)CC2)cc1` (configuration not stated), the T/C (dose: 37.5 mg/kg/injection, vehicle: Klucel (hydroxypropylcellulose) (HPC)) is reported as 79 % of control, the T/C (dose: 75.0 mg/kg/injection, vehicle: Klucel (hydroxypropylcellulose) (HPC)) is reported as 63 % of control and the T/C (dose: 150.0 mg/kg/injection, vehicle: Klucel (hydroxypropylcellulose) (HPC)) is reported as 71 % of control. The T/C (dose: 600.0 mg/kg/injection, vehicle: Klucel (hydroxypropylcellulose) (HPC)) was 63 % of control, the T/C (dose: 1200.0 mg/kg/injection, vehicle: Klucel (hydroxypropylcellulose) (HPC)) was 78 % of control and the T/C (dose: 2400.0 mg/kg/injection, vehicle: Klucel (hydroxypropylcellulose) (HPC)) was 62 % of control.

In the case of `Nc1nc(N)c2cc(S(=O)(=O)c3ccccc3)ccc2n1`, the T/C (dose: 150.0 mg/kg/injection, vehicle: saline with Tween-80) is reported as 116 % of control, the T/C (dose: 300.0 mg/kg/injection, vehicle: saline with Tween-80) is reported as 77 % of control and the T/C (dose: 600.0 mg/kg/injection, vehicle: saline with Tween-80) is reported as 87 % of control. The T/C (dose: 1200.0 mg/kg/injection, vehicle: saline with Tween-80) was 95 % of control.
